Laboratory results taken from PMC4861708 (Frontiers in Cell and Developmental Biology, 2016).
Converted amounts (≈) assume the structure as drawn. Where a SMILES comes first, the peptide text is derived from it. The star is where a group is joined. Orn(α-tetramethylguanidino) = CN(C)C(=N[C@@H](CCCN)C(=O)*)N(C)C

How the values were obtained:
E. coli DSM 1103 = test: Transmission electron microscopy, morphological changes; assay type: cell-based, Escherichia coli; settings: 1 h
Method: (§1) Peptide-bacteria mixtures were fixed (2% glutaraldehyde, 5 mmol/L CaCl2, 10 mmol/L MgCl2 in 0.1 mol/L sodium cacodylate buffer, pH 7.4) overnight at 4°C. […] Samples were rinsed with distilled water (5 × 10 min), incubated with aqueous uranylacetate (0.5% w/v) for 1 h at 4°C, washed with distilled water (3 × 10 min), and embedded in Epon. The hardened blocks were sectioned (50 nm) on a UCT ultramicrotome (Leica, Vienna, Austria), stained with uranyl acetate and lead citrate on an AC20 system (Leica), and visualized at a Tecnai 12 electron microscope (FEI, Eindhoven, The Netherlands) at 80 kV. Morphological effects were quantified on average for 25 cells per condition.

P. aeruginosa elastase = target: T1, P. aeruginosa elastase (Pseudomonas aeruginosa, UniProt P14756); test: Elastase assay (proteolytic stability); assay type: in vitro ADME; settings: after 6 h, elastase 12 units/mL, pH 8.3, 37°C
T1 construct: purchased Merck (Darmstadt, Germany)
Method: A stock solution of P. aeruginosa elastase (0.26 U/μL) was prepared in Tris-HCl (5 mmol/L, pH 8.3) and stored at −80°C. Peptides (0.5 g/L in 5 mmol/L Tris-HCl, pH 8.3) were incubated with elastase (0.012 U/μL) at 37°C under constant shaking (450 rpm) for 0, 0.5, 2, 4, and 6 h. Aliquots (10.5 μL) were precipitated with a mixture of acetonitrile and ethanol (1:1 v/v) containing 0.1% TFA (21 μL), centrifuged, the supernatant transferred into a new tube, and dried in vacuum. Samples were dissolved in aqueous acetonitrile (3% v/v) containing TFA (0.1% v/v) and analyzed by RP-HPLC using the conditions described above.

P. aeruginosa DSM 1117 = test: Transmission electron microscopy, morphological changes; assay type: cell-based, Pseudomonas aeruginosa; settings: 1 h
Method: as §1

[1] = system: K. pneumoniae DSM 681 (ATCC 10031); assay type: cell-based, Klebsiella pneumoniae; settings: DSM 681, 24 h
Method: (§2) MICs of P. aeruginosa strains DSM 1117 (ATCC 27853), DSM 3227 (ATCC 19429), and DSM 9644 were determined in a microdilution broth assay using 50 or 100% MHB (11.5 and 23 g/L MHB, respectively) whereas MICs of E. coli DSM 1103 (ATCC 25922) and K. pneumoniae DSM 681 (ATCC 10031) were determined in TSB (30 g/L TSB). Peptides (1 g/L in water) were serially two-fold diluted in a 96-well microtiter plate (PS, sterile, flat bottom) in 50 μL of the corresponding medium to final concentrations of 512–4 μg/mL. Bacteria were grown in nutrient broth overnight and diluted to a cell concentration of 1.5 × 10^7 cells/mL in the corresponding medium. Cell densities were determined by using the McFarland standard as reference. An aliquot (50 μL) of the cell culture was added to each well and incubated (37°C, 24 h). The OD595 was determined in a SpectraMax 340PC (Molecular Devices, Sunnyvale, USA). Additionally, MIC values were also determined for high bacteria densities (5 × 10^8 cells/mL) corresponding to the conditions used for TEM, as described above.

[2] = system: P. aeruginosa DSM 1117 (ATCC 27853); assay type: cell-based, Pseudomonas aeruginosa; settings: DSM 1117, 24 h
Method: as §2

T1 sequence (P14756 198-498): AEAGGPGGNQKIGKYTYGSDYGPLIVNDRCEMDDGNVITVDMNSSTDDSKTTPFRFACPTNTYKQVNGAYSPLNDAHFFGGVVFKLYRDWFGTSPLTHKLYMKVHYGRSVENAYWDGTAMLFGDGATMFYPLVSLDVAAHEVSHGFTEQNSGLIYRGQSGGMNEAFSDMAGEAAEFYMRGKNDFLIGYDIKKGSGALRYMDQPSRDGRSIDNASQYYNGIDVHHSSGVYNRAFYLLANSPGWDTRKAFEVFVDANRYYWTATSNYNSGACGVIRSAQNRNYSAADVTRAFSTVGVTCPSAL

CC[C@H](C)[C@H](NC(=O)[C@H](Cc1ccc(O)cc1)NC(=O)[C@@H](NC(=O)[C@@H]1CCCN1C(=O)[C@H](CCCNC(=N)N)NC(=O)[C@H](CC(N)=O)NC(=O)[C@H](CC(N)=O)NC(=O)[C@H](CCCN)N=C(N(C)C)N(C)C)C(C)C)C(=O)N1CCC[C@H]1C(=O)N[C@@H](CCCNC(=N)N)C(=O)N1CCC[C@H]1C(=O)N[C@@H](CCCNC(=N)N)C(=O)N1CCC[C@H]1C(=O)N1CCC[C@H]1C(=O)N[C@@H](Cc1c[nH]cn1)C(=O)N1CCC[C@H]1C(=O)N[C@@H](CCCNC(=N)N)C(=O)N[C@@H](CC(C)C)C(=O)O [Api137, gu-ONNRPVYIPRPRPPHPRL-OH, reference compound] ({Orn(α-tetramethylguanidino)}-NNRPVYIPRPRPPHPRL-OH)
Cell: r, ruptured (E. coli DSM 1103; 8 µg/mL): 0% | DNA/Ribosomes relocalized (E. coli DSM 1103; 8 µg/mL): 17% | Fragments: +++, long and thick (E. coli DSM 1103; 8 µg/mL): 0% | Fragments: ++, long and thin (E. coli DSM 1103; 8 µg/mL): 27% | Fragments: +, small and thin (E. coli DSM 1103; 8 µg/mL): 30% | Fragments: -, no (E. coli DSM 1103; 8 µg/mL): 43% | Fragments: LV, large vesicles (E. coli DSM 1103; 8 µg/mL): 0% | Membrane: i, intact (E. coli DSM 1103; 8 µg/mL): 100% | Membrane: w, wrinkled (E. coli DSM 1103; 8 µg/mL): 0% | Vesicle release strong (E. coli DSM 1103; 8 µg/mL): 100% | Cell: r, ruptured (E. coli DSM 1103; 32 µg/mL): 0% | DNA/Ribosomes relocalized (E. coli DSM 1103; 32 µg/mL): 30% | Fragments: +++, long and thick (E. coli DSM 1103; 32 µg/mL): 0% | Fragments: ++, long and thin (E. coli DSM 1103; 32 µg/mL): 23% | Fragments: +, small and thin (E. coli DSM 1103; 32 µg/mL): 40% | Fragments: -, no (E. coli DSM 1103; 32 µg/mL): 37% | Fragments: LV, large vesicles (E. coli DSM 1103; 32 µg/mL): 0% | Membrane: i, intact (E. coli DSM 1103; 32 µg/mL): 97% | Membrane: w, wrinkled (E. coli DSM 1103; 32 µg/mL): 3% | Vesicle release strong (E. coli DSM 1103; 32 µg/mL): 100% | Cell: r, ruptured (E. coli DSM 1103; 128 µg/mL): 0% | DNA/Ribosomes relocalized (E. coli DSM 1103; 128 µg/mL): 0% | Fragments: +++, long and thick (E. coli DSM 1103; 128 µg/mL): 0% | Fragments: ++, long and thin (E. coli DSM 1103; 128 µg/mL): 42% | Fragments: +, small and thin (E. coli DSM 1103; 128 µg/mL): 54% | Fragments: -, no (E. coli DSM 1103; 128 µg/mL): 4% | Fragments: LV, large vesicles (E. coli DSM 1103; 128 µg/mL): 0% | Membrane: i, intact (E. coli DSM 1103; 128 µg/mL): 4% | Membrane: w, wrinkled (E. coli DSM 1103; 128 µg/mL): 96% | Vesicle release weak (E. coli DSM 1103; 128 µg/mL): 35% | Cell: r, ruptured (E. coli DSM 1103; 512 µg/mL): 0% | DNA/Ribosomes relocalized (E. coli DSM 1103; 512 µg/mL): 0% | Fragments: +++, long and thick (E. coli DSM 1103; 512 µg/mL): 0% | Fragments: ++, long and thin (E. coli DSM 1103; 512 µg/mL): 29% | Fragments: +, small and thin (E. coli DSM 1103; 512 µg/mL): 61% | Fragments: -, no (E. coli DSM 1103; 512 µg/mL): 11% | Fragments: LV, large vesicles (E. coli DSM 1103; 512 µg/mL): 0% | Membrane: i, intact (E. coli DSM 1103; 512 µg/mL): 32% | Membrane: w, wrinkled (E. coli DSM 1103; 512 µg/mL): 68% | Vesicle release weak (E. coli DSM 1103; 512 µg/mL): 50% | Peptide remaining with elastase (P. aeruginosa elastase): fully recovered | Cells spongy (P. aeruginosa DSM 1117; 32 µg/mL): 0% | DNA/ribosomes relocalization: +++, extremely relocalized (P. aeruginosa DSM 1117; 32 µg/mL): 0% | DNA/ribosomes relocalization: +, starting (P. aeruginosa DSM 1117; 32 µg/mL): 43% | DNA/ribosomes relocalization: -, no (P. aeruginosa DSM 1117; 32 µg/mL): 40% | Membrane: b, broken (P. aeruginosa DSM 1117; 32 µg/mL): 0% | Membrane: i, intact (P. aeruginosa DSM 1117; 32 µg/mL): 100% | Membrane: r, ruptured (P. aeruginosa DSM 1117; 32 µg/mL): 0% | Ribosome clustering: +++, extremely clustered (P. aeruginosa DSM 1117; 32 µg/mL): 0% | Ribosome clustering: ++, clustered (P. aeruginosa DSM 1117; 32 µg/mL): 0% | Ribosome clustering: +, starting (P. aeruginosa DSM 1117; 32 µg/mL): 63% | Ribosome clustering: -, no (P. aeruginosa DSM 1117; 32 µg/mL): 37% | Vesicle release (P. aeruginosa DSM 1117; 32 µg/mL): 43% | dissociated Fragments: ++, long and thin (P. aeruginosa DSM 1117; 32 µg/mL): 0% | dissociated Fragments: -, no (P. aeruginosa DSM 1117; 32 µg/mL): 87% | dissociated Fragments: LV, large vesicles (P. aeruginosa DSM 1117; 32 µg/mL): 0% | Cells spongy (P. aeruginosa DSM 1117; 128 µg/mL): 0% | DNA/ribosomes relocalization: +++, extremely relocalized (P. aeruginosa DSM 1117; 128 µg/mL): 0% | DNA/ribosomes relocalization: +, starting (P. aeruginosa DSM 1117; 128 µg/mL): 37% | DNA/ribosomes relocalization: -, no (P. aeruginosa DSM 1117; 128 µg/mL): 47% | Membrane: b, broken (P. aeruginosa DSM 1117; 128 µg/mL): 0% | Membrane: i, intact (P. aeruginosa DSM 1117; 128 µg/mL): 100% | Membrane: r, ruptured (P. aeruginosa DSM 1117; 128 µg/mL): 0% | Ribosome clustering: +++, extremely clustered (P. aeruginosa DSM 1117; 128 µg/mL): 0% | Ribosome clustering: ++, clustered (P. aeruginosa DSM 1117; 128 µg/mL): 0% | Ribosome clustering: +, starting (P. aeruginosa DSM 1117; 128 µg/mL): 57% | Ribosome clustering: -, no (P. aeruginosa DSM 1117; 128 µg/mL): 43% | Vesicle release (P. aeruginosa DSM 1117; 128 µg/mL): 47% | dissociated Fragments: ++, long and thin (P. aeruginosa DSM 1117; 128 µg/mL): 3% | dissociated Fragments: +, small and thin (P. aeruginosa DSM 1117; 128 µg/mL): 10% | dissociated Fragments: -, no (P. aeruginosa DSM 1117; 128 µg/mL): 87% | dissociated Fragments: LV, large vesicles (P. aeruginosa DSM 1117; 128 µg/mL): 0% | Cells spongy (P. aeruginosa DSM 1117; 512 µg/mL): 0% | DNA/ribosomes relocalization: +++, extremely relocalized (P. aeruginosa DSM 1117; 512 µg/mL): 0% | DNA/ribosomes relocalization: +, starting (P. aeruginosa DSM 1117; 512 µg/mL): 40% | DNA/ribosomes relocalization: -, no (P. aeruginosa DSM 1117; 512 µg/mL): 47% | Membrane: b, broken (P. aeruginosa DSM 1117; 512 µg/mL): 0% | Membrane: i, intact (P. aeruginosa DSM 1117; 512 µg/mL): 100% | Membrane: r, ruptured (P. aeruginosa DSM 1117; 512 µg/mL): 0% | Ribosome clustering: +++, extremely clustered (P. aeruginosa DSM 1117; 512 µg/mL): 0% | Ribosome clustering: ++, clustered (P. aeruginosa DSM 1117; 512 µg/mL): 0% | Ribosome clustering: +, starting (P. aeruginosa DSM 1117; 512 µg/mL): 30% | Ribosome clustering: -, no (P. aeruginosa DSM 1117; 512 µg/mL): 70% | Vesicle release (P. aeruginosa DSM 1117; 512 µg/mL): 37% | dissociated Fragments: ++, long and thin (P. aeruginosa DSM 1117; 512 µg/mL): 3% | dissociated Fragments: +, small and thin (P. aeruginosa DSM 1117; 512 µg/mL): 0% | dissociated Fragments: -, no (P. aeruginosa DSM 1117; 512 µg/mL): 97% | dissociated Fragments: LV, large vesicles (P. aeruginosa DSM 1117; 512 µg/mL): 0% | MIC K. pneumoniae DSM 681 [1]: 16 mg/L (≈ 6.98 µM) | MIC P. aeruginosa DSM 1117, high inoculum [2]: 128 mg/L (≈ 55.9 µM)
